Results from patent publication US20250332158A1, “COMPOSITION FOR PROMOTING MITOPHAGY ACTIVITY COMPRISING ISOQUINOLINE DERIVATIVE COMPOUND AS ACTIVE INGREDIENT AND USE THEREOF” (ALTMEDICAL CO., LTD., priority 2022, published 2025).
“Also recorded” adds a separate entry of the source. Like-named read-outs stand apart in the source and are kept apart here.

Legend:
[1] = system: human normal lung cell line BEAS-2B; test: mitophagy activity by mt-Keima (mitokeyma) fluorescent protein quantification, flow cytometry; format: cell-based; settings: for mitophagy activity compared to the con group / concentration showing maximum mitophagy activity: BEAS-2B; for mitophagy activity compared to the con group: 20 µM, 24 hours, flow cytometer (FIG. 2A); for concentration showing maximum mitophagy activity: concentration series (FIG. 2B); for times higher mitophagy activity than CD1-012: from concentrations of maximum mitophagy activity
Description: By utilizing these characteristics, mt-Keima can be expressed specifically in mitochondria, and by performing integrated analysis of the fluorescence signals at 458 nm and 561 nm, the fluorescence signal can be analyzed when mitochondria in a neutral environment (pH=7.4-7.8) are converted to an acidic environment (pH=4.5) by lysosomes delivered from mitophagy, allowing for quantitative measurement of mitophagy activity.
Specifically, a mitokeyma fluorescent protein quantification method, which allows for the quantitative measurement of mitophagy activity in living cells, was used. […] After treatment, the activity of mitophagy was measured using a flow cytometer. As a negative control, a control group (Control, con) without compound treatment was used, and as a positive control, CCCP (10 μM), which experimentally induces mitophagy activity, and CD1-012, a precursor of the compound of the present disclosure known to induce mitophagy activity, were used.

[2] = system: human normal lung cell line BEAS-2B; test: colony forming assay (cytotoxicity); format: cell-based
Description: A colony forming assay was performed to confirm the cytotoxicity of the novel isoquinoline derivatives of the present disclosure. Specifically, the isoquinoline derivatives were treated to the human normal lung cell line BEAS-2B for 24 hours, followed by culturing for 2 weeks to analyze the colony formed. As controls, a control group (con) that was not treated with anything and a positive control treated with CCCP, which induces mitophagy activity but also causes mitochondrial dysfunction and toxicity, were used.

SMILES	mitophagy activity compared to the con group [1]	other results
Oc1cc2c(cc1O)-c1cc3ccc(O)c(O)c3c[n+]1CC2 [CD1-271]	promote the activity of mitophagy	
COc1ccc2c(c1OC)CN1CCc3cc4c(cc3C1=C2)OCO4 [CD1-363]	promote the activity of mitophagy	
Oc1cc2c(cc1O)C1=Cc3ccc(O)c(O)c3CN1CC2 [CD1-367]	promote the activity of mitophagy	size and number of colonies (cytotoxicity) ([2]; BEAS-2B, treated 24 hours, cultured 2 weeks (FIG. 4)): except for CD1-367, did not exhibit cytotoxicity
COc1ccc2c(Cc3ccccc3)c3[n+](cc2c1OC)CCc1cc2c(cc1-3)OCO2 [CD1-404]	promote the activity of mitophagy	
N#CC(C#N)=NNc1cccc(Cl)c1 [CCCP, reference compound]		size and number of colonies (cytotoxicity) [2]: decrease in both the size and number of colonies
CCc1c2[n+](cc3c(OC)c(OC)ccc13)CCc1cc3c(cc1-2)OCO3 [CD1-409]	best mitophagy activity promotion; also recorded: promote the activity of mitophagy	concentration showing maximum mitophagy activity [1]: 10 µM; times higher mitophagy activity than CD1-012 [1]: 2 times
C=CCc1c2[n+](cc3c(OC)c(OC)ccc13)CCc1cc3c(cc1-2)OCO3 [CD1-386]	best mitophagy activity promotion; also recorded: promote the activity of mitophagy	concentration showing maximum mitophagy activity [1]: 5 µM; times higher mitophagy activity than CD1-012 [1]: 4 times
